The results in this text go back to patent publication US10815274B2, “Immunogenic WT-1 peptides and methods of use thereof” (Memorial Sloan Kettering Cancer Center, priority 2012, dated 2020).

The test system of data set [1] is WT1+ allo APC with restricting HLA allele loaded with WT1 peptide. Briefly: Cr51 release assay, cytotoxic CTL response vs peptide loaded allogeneic APC sharing restricting HLA allele (HLA restriction). The following applies: for Cytotoxic CTL response, % vs WT1+ allo APC with restricting HLA allele loaded with WT1 peptide: 50:1 E:T.
In data set [2] the test system is WT1 peptide loaded autologous APC. Briefly: Cr51 release assay, cytotoxic CTL response vs peptide loaded autologous APC. The class given is cell-based, human. The following applies: 50:1 E:T.
The test system of the next data set is WT1+ leukemia. Briefly: Cr51 release assay, cytotoxic CTL response vs WT1+ leukemia expressing restricting HLA allele. The class given is cell-based, human. The following applies: 50:1 E:T. An excerpt:
(§1) Twenty-four primary leukemic cells and 1 leukemic cell line were characterized for their expression of WT1 by intracellular FACS staining using murine anti-human WT1 monoclonal antibodies (Neomarkers, Fremont, Calif.) as previously described (32,38) The WT1+ leukemias included blast cells from 11 primary AMLs, 3 primary ALLs and 1B-cell precursor ALL cell line. Ten WT1-leukemias, were used as controls, and included 3 B-cell precursor ALLs and 7 AMLs.
PHA blasts were not available from every patient that provided leukemia blasts for this study.

The subject of the next data set is WT1- leukemia. Briefly: Cr51 release assay, cytotoxic CTL response vs WT1- leukemia. The class given is cell-based, human. The following applies: 50:1 E:T.
Description: as §1

A further data set relates to WT1- autologous APC. The data set is described as follows: Cr51 release assay, cytotoxic CTL response vs unmodified autologous APC. The class given is cell-based, human. The following applies: 50:1 E:T.
Data set [3] has as its system WT1- allo APC with restricting HLA allele. The data set is described as follows: Cr51 release assay, cytotoxic CTL response vs unloaded allogeneic APC sharing restricting HLA allele. It counts as cell-based, human. The following applies: 50:1 E:T.

Where a SMILES comes first, the peptide text is derived from it.

As to `CSCC[C@H](NC(=O)[C@@H]1CCCN1C(=O)[C@H](CC(=O)O)NC(=O)[C@H](CCC(=O)O)NC(=O)[C@H](Cc1c[nH]cn1)NC(=O)[C@H](CCCCN)NC(=O)[C@H](Cc1ccccc1)NC(=O)[C@H](CO)NC(=O)[C@@H](N)Cc1c[nH]cn1)C(=O)O` [SEQ ID NO: 165] (H-HSFKHEDPM-OH; N-terminus and C-terminus assumed), the “Cytotoxic CTL response, % vs WT1+ allo APC with restricting HLA allele loaded with WT1 peptide” value (“Cytotoxic CTL response, % … with WT1 peptide” below) in data set [1] (HLA allele B3501) is on record as 63%. Further, the “Cytotoxic activity against panel of allogeneic CAMs loaded with peptide, each sharing one HLA allele” value in data set [1] (peptide loaded autologous targets and targets expressing HLA-B3501, not targets sharing other alleles) is “selectively lysed”. Also, the “Cytotoxic CTL response, % vs WT1 peptide loaded autologous APC” value in data set [2] (HLA allele B3501) worked out at 50%. Moreover, in the data set with WT1+ leukemia (HLA allele B3501), the “Cytotoxic CTL response, % vs WT1+ leukemia” value is listed as 45%. The “Cytotoxic CTL response, % vs WT1- leukemia” value in the data set on WT1- leukemia (HLA allele B3501) is 5%. The “Cytotoxic CTL response, % vs WT1- autologous APC” value in the data set with WT1- autologous APC (HLA allele B3501) came to 0%. Besides, in data set [3] (HLA allele B3501), the “Cytotoxic CTL response, % vs WT1- allo APC with restricting HLA allele” value is 3%.
Regarding `CC(C)C[C@H](NC(=O)[C@H](CC(C)C)NC(=O)[C@H](CC(C)C)NC(=O)[C@H](C)NC(=O)[C@H](CCC(N)=O)NC(=O)[C@H](CO)NC(=O)CNC(=O)[C@@H](NC(=O)[C@@H](N)CS)[C@@H](C)O)C(=O)O` [SEQ ID NO: 167] (H-CTGSQALLL-OH; N-terminus and C-terminus assumed), the “Cytotoxic CTL response, % … with WT1 peptide” value in data set [1] (HLA allele A0101) was 26%. Moreover, the “Cytotoxic CTL response, % vs WT1 peptide loaded autologous APC” value in data set [2] (HLA allele A0101) turned out to be 21%. Besides, the “Cytotoxic CTL response, % vs WT1+ leukemia” value with WT1+ leukemia (HLA allele A0101) was found to be 33%. Also, in the data set on WT1- leukemia (HLA allele A0101), the “Cytotoxic CTL response, % vs WT1- leukemia” value is 3%. The “Cytotoxic CTL response, % vs WT1- autologous APC” value in the data set on WT1- autologous APC (HLA allele A0101) was determined as 0%. Also, in data set [3] (HLA allele A0101), the “Cytotoxic CTL response, % vs WT1- allo APC with restricting HLA allele” value was determined as 0%.
Regarding `C[C@H](NC(=O)[C@H](CCC(N)=O)NC(=O)[C@H](CO)NC(=O)CNC(=O)[C@@H](NC(=O)[C@H](CS)NC(=O)[C@H](CO)NC(=O)[C@H](CC(=O)O)NC(=O)[C@@H](N)[C@@H](C)O)[C@@H](C)O)C(=O)O` [SEQ ID NO: 168] (H-TDSCTGSQA-OH; N-terminus and C-terminus assumed), the “Cytotoxic CTL response, % … with WT1 peptide” value in data set [1] (HLA allele B3802) worked out at 53%; in data set [1] (HLA allele B4402), 88%. The figures for the “Cytotoxic CTL response, % vs WT1 peptide loaded autologous APC” value in data set [2] (HLA allele B3802) and in data set [2] (HLA allele B4402) were 88% and 36%, respectively. Further, the “Cytotoxic CTL response, % vs WT1+ leukemia” value with WT1+ leukemia (HLA allele B4402) was 56%. The “Cytotoxic CTL response, % vs WT1- leukemia” value in the data set with WT1- leukemia (HLA allele B4402) worked out at 1%. The “Cytotoxic CTL response, % vs WT1- autologous APC” value in the data set with WT1- autologous APC (HLA allele B3802) is given as 0%; with WT1- autologous APC (HLA allele B4402), 1%. In addition, the “Cytotoxic CTL response, % vs WT1- allo APC with restricting HLA allele” value was found to be 1% in data set [3] (HLA allele B3802) and 0% in data set [3] (HLA allele B4402).
With `CSCC[C@H](NC(=O)[C@H](CCC(N)=O)NC(=O)[C@H](CC(N)=O)NC(=O)[C@@H](N)Cc1c[nH]c2ccccc12)C(=O)N[C@@H](CC(N)=O)C(=O)N[C@@H](CC(C)C)C(=O)NCC(=O)N[C@@H](C)C(=O)N[C@H](C(=O)O)[C@@H](C)O` [SEQ ID NO: 171] (H-WNQMNLGAT-OH; N-terminus and C-terminus assumed), the “Cytotoxic CTL response, % … with WT1 peptide” value in data set [1] (HLA allele A0101) is on record as 19%; in data set [1] (HLA allele A0201) it was 21%; in data set [1] (HLA allele B3508), 21%; in data set [1] (HLA allele C1701) it was 7%. For the same compound, the “Cytotoxic CTL response, % vs WT1 peptide loaded autologous APC” value in data set [2] (HLA allele A0101) stood at 26%; in data set [2] (HLA allele A0201), 18%; in data set [2] (HLA allele B3508), 18%; in data set [2] (HLA allele C1701), 10%. For the same compound, the “Cytotoxic CTL response, % vs WT1+ leukemia” value is recorded as 19% in the data set on WT1+ leukemia (HLA allele A0201), 19% in the data set with WT1+ leukemia (HLA allele B3508) and 16% in the data set with WT1+ leukemia (HLA allele C1701). Besides, the “Cytotoxic CTL response, % vs WT1- leukemia” value with WT1- leukemia (HLA allele A0201) is recorded as 1%; in the data set with WT1- leukemia (HLA allele B3508), 4%; with WT1- leukemia (HLA allele C1701) it was 1%. Moreover, the “Cytotoxic CTL response, % vs WT1- autologous APC” value with WT1- autologous APC (HLA allele A0101), in the data set with WT1- autologous APC (HLA allele A0201), in the data set with WT1- autologous APC (HLA allele B3508) and in the data set on WT1- autologous APC (HLA allele C1701) was 0% in each case. The “Cytotoxic CTL response, % vs WT1- allo APC with restricting HLA allele” value in data set [3] (HLA allele A0101) was found to be 3%; in data set [3] (HLA allele A0201), 0%; in data set [3] (HLA allele B3508), 2%; in data set [3] (HLA allele C1701), 0%.
Take `CSCC[C@H](NC(=O)[C@H](CCC(N)=O)NC(=O)[C@@H](N)CC(N)=O)C(=O)N[C@@H](CC(N)=O)C(=O)N[C@@H](CC(C)C)C(=O)NCC(=O)N[C@@H](C)C(=O)N[C@H](C(=O)N[C@@H](CC(C)C)C(=O)O)[C@@H](C)O` [SEQ ID NO: 172] (H-NQMNLGATL-OH; N-terminus and C-terminus assumed): in data set [1] (HLA allele A2402), the “Cytotoxic CTL response, % … with WT1 peptide” value amounted to 2%. In addition, the “Cytotoxic CTL response, % vs WT1 peptide loaded autologous APC” value in data set [2] (HLA allele A2402) was found to be 9%. In addition, the “Cytotoxic CTL response, % vs WT1+ leukemia” value in the data set with WT1+ leukemia (HLA allele A2402) is reported as 17%. Also, in the data set on WT1- leukemia (HLA allele A2402), the “Cytotoxic CTL response, % vs WT1- leukemia” value was found to be 1%. For the same compound, the “Cytotoxic CTL response, % vs WT1- autologous APC” value in the data set with WT1- autologous APC (HLA allele A2402) is given as 4%. Moreover, the “Cytotoxic CTL response, % vs WT1- allo APC with restricting HLA allele” value in data set [3] (HLA allele A2402) is 0%.
As for `CSCC[C@H](NC(=O)[C@H](CCC(N)=O)NC(=O)[C@H](CC(N)=O)NC(=O)[C@@H](N)Cc1c[nH]c2ccccc12)C(=O)N[C@@H](CC(N)=O)C(=O)N[C@@H](CC(C)C)C(=O)NCC(=O)N[C@@H](C)C(=O)N[C@H](C(=O)N[C@@H](CC(C)C)C(=O)N[C@@H](CCCCN)C(=O)O)[C@@H](C)O` [SEQ ID NO: 173] (H-WNQMNLGATLK-OH; N-terminus and C-terminus assumed), the “Cytotoxic CTL response, % … with WT1 peptide” value in data set [1] (HLA allele DRB11104) amounted to 1%. Also, the “Cytotoxic CTL response, % vs WT1 peptide loaded autologous APC” value in data set [2] (HLA allele DRB11104) stood at 8%. For the same compound, the “Cytotoxic CTL response, % vs WT1+ leukemia” value in the data set on WT1+ leukemia (HLA allele DRB11104) is 0%. Besides, the “Cytotoxic CTL response, % vs WT1- leukemia” value in the data set on WT1- leukemia (HLA allele DRB11104) worked out at 0%. Further, the “Cytotoxic CTL response, % vs WT1- autologous APC” value in the data set on WT1- autologous APC (HLA allele DRB11104) is reported as 0%. For the same compound, the “Cytotoxic CTL response, % vs WT1- allo APC with restricting HLA allele” value in data set [3] (HLA allele DRB11104) worked out at 2%.
Take `CC(C)C[C@H](NC(=O)[C@@H](NC(=O)[C@H](C)NC(=O)CNC(=O)[C@H](CC(C)C)NC(=O)[C@@H](N)CC(N)=O)[C@@H](C)O)C(=O)N[C@@H](CCCCN)C(=O)NCC(=O)N[C@H](C(=O)O)C(C)C` [SEQ ID NO: 175] (H-NLGATLKGV-OH; N-terminus and C-terminus assumed): the “Cytotoxic CTL response, % … with WT1 peptide” value came to 17% in data set [1] (HLA allele A0101) and 14% in data set [1] (HLA allele A0201). Further, the “Cytotoxic CTL response, % vs WT1 peptide loaded autologous APC” value was determined as 19% in data set [2] (HLA allele A0101) and 18% in data set [2] (HLA allele A0201). In addition, in the data set on WT1+ leukemia (HLA allele A0201), the “Cytotoxic CTL response, % vs WT1+ leukemia” value is on record as 19%. The “Cytotoxic CTL response, % vs WT1- leukemia” value in the data set with WT1- leukemia (HLA allele A0201) is 2%. In addition, the entries for the “Cytotoxic CTL response, % vs WT1- autologous APC” value in the data set with WT1- autologous APC (HLA allele A0101) and in the data set on WT1- autologous APC (HLA allele A0201) were 2% and 1%, respectively. Moreover, the “Cytotoxic CTL response, % vs WT1- allo APC with restricting HLA allele” value in data set [3] (HLA allele A0101) and in data set [3] (HLA allele A0201) was 1% in each case.
As for `C[C@@H](O)[C@H](NC(=O)[C@@H](NC(=O)[C@H](Cc1c[nH]cn1)NC(=O)[C@H](CC(N)=O)NC(=O)[C@H](CC(=O)O)NC(=O)[C@H](CO)NC(=O)[C@H](CCC(=O)O)NC(=O)[C@H](Cc1ccc(O)cc1)NC(=O)CN)[C@@H](C)O)C(=O)O` [SEQ ID NO: 178] (H-GYESDNHTT-OH; N-terminus and C-terminus assumed), the “Cytotoxic CTL response, % … with WT1 peptide” value in data set [1] (HLA allele A0101) was 26%; in data set [1] (HLA allele B3501), 23%. Besides, the entries for the “Cytotoxic CTL response, % vs WT1 peptide loaded autologous APC” value in data set [2] (HLA allele A0101) and in data set [2] (HLA allele B3501) were 27% and 35%, respectively. For the same compound, the “Cytotoxic CTL response, % vs WT1+ leukemia” value in the data set with WT1+ leukemia (HLA allele A0101) came out at 33%. Moreover, in the data set with WT1- leukemia (HLA allele A0101), the “Cytotoxic CTL response, % vs WT1- leukemia” value is 0%. The “Cytotoxic CTL response, % vs WT1- autologous APC” value in the data set with WT1- autologous APC (HLA allele A0101) and with WT1- autologous APC (HLA allele B3501) was 0% throughout. For the same compound, the “Cytotoxic CTL response, % vs WT1- allo APC with restricting HLA allele” value in data set [3] (HLA allele A0101) and in data set [3] (HLA allele B3501) was 0% throughout.
